# In US20250041363A1, “COMPOSITIONS AND METHODS FOR TREATMENT OF ALCOHOL USE DISORDER AND ALCOHOL-ASSOCIATED LIVER DISEASE” (UNIVERSITY OF LOUISVILLE RESEARCH FOUNDATION, INC., priority 2023, published 2025):
# Assays:
# Type in all cases: in vivo, human
# [1] = system: patients with moderately severe acute alcohol associated hepatitis (mAH, MELD <21) with heavy alcohol drinking; test: Double-blind placebo-controlled trial of LGG: alcohol consumption (monthly alcohol use questionnaire); conditions: for #Drinks (Weekly): LGG arm, baseline 34.71 ± 21.99
# Source text: Conduct a pilot double-blind treatment trial identifying the dual therapeutic role of LGG in patients with comorbid AUD and moderate AH. Evaluate the therapeutic effects of LGG on lowering alcohol consumption over 6 months of treatment compared to placebo. Evaluate the therapeutic outcomes of LGG treatment on liver injury, progression and prognosis compared to placebo. Validate the central role of gut dysfunction in the altered gut-liver and gut-brain response in patients with AUD and moderate AH.
# (§1) We analyzed data from 46 participants in a large NIAAA-funded clinical trial performed at 4 medical centers (DASH Consortium). This investigation was a double-blind placebo-controlled study of patients with moderately severe acute alcohol associated hepatitis (mAH, MELD <21) who had pre-existing/ongoing heavy alcohol drinking, with clinical assessments at multiple time points. Data on demographics, drinking, and liver injury were collected and assessed at baseline (BL), 1-month (1-m), 3-months (3-m), and 6-months (6-m). Alcohol consumption was measured by baseline AUDIT, monthly alcohol use questionnaire; and liver injury was assessed by standard liver injury markers. All patients received standard medical management for liver disease and counseling for AUD in the standard of care protocol.
# [2] = system: patients with moderately severe acute alcohol associated hepatitis (mAH, MELD <21) with heavy alcohol drinking; test: Double-blind placebo-controlled trial of LGG: liver injury, severity and progression markers; conditions: for INR / ABIC / MELD / Creatinine / Albumin / AST:ALT / Total Bilirubin / ALT / AST: LGG arm; for INR: baseline 1.453 ± 0.35; for ABIC: baseline 6.3 ± 1.26; for MELD: baseline 17.42 ± 1.79; for Creatinine: baseline 0.64 ± 0.17; for Albumin: baseline 2.7 ± 0.6; for AST:ALT: baseline 2.74 ± 1.54; for Total Bilirubin: baseline 7.2 ± 4.5; for ALT: baseline 73.7 ± 46.7; for AST: baseline 169.0 ± 88.4
# Source text: as §1
# [3] = system: AUD patients; test: Pilot study of LGG in AUD patients: heavy drinking markers; conditions: AUD patients treated for 6-months, preliminary results
substance,measurement,setting,value
Lactobacillus rhamnosus GG [LGG],drinking level reached (social or abstinence level),"[1]; 6-month assessment, compared to placebo",< 4 drinks/week
same,change in average drinks/week in LGG arm compared to the placebo arm,"[1]; 6-month assessment, p=0.0128",significant drop
same,heavy drinking levels after treatment,[1]; 6 months of LGG treatment,reduced heavy drinking levels to the social drinking or abstinence levels
same,#Drinks (Weekly),"[1]; 1 month, n = 23",1.81 ± 3.77
same,#Drinks (Weekly),"[1]; 3 month, n = 18",2.83 ± 7.71
same,#Drinks (Weekly),"[1]; 6 month, n = 16",0.31 ± 1.01
same,lowering of alcohol consumption (average drinking/week) over 6 months within group,"[1]; over 6 months, p≤0.001 in the LGG group","significant, with higher significance"
same,patients with reduction of alcohol drinks/week to the level of social drinking criteria,"[1]; vs four of the 22 placebo, Fisher's exact test p=0.0012, Likelihood ratio=9.0",sixteen of the 24
same,"1 month change in MELD, LGG arm compared to the placebo arm","[2]; 1 month, FIG. 2A",significantly dropped
same,1 month change in ABIC score,"[2]; 1 month, FIG. 2C, p=0.005",dropped significantly
same,"drop in the AST:ALT ratio, LGG arm compared to the placebo arm",[2]; FIG. 2B,significant
same,INR,"[2]; 1 month, n = 17",1.32 ± 0.3 Unit Score
same,ABIC,"[2]; 1 month, n = 17",5.84 ± 1.2 Unit Score
same,MELD,"[2]; 1 month, n = 17",13.29 ± 4.34 Unit score
same,Creatinine,"[2]; 1 month, n = 18",.81 ± 0.5 mg/dL
same,Albumin,"[2]; 1 month, n = 18",3.5 ± 0.8 g/dL
same,AST:ALT,"[2]; 1 month, n = 18",1.99 ± 1.2
same,Total Bilirubin,"[2]; 1 month, n = 18",2.54 ± 1.4 mg/dL
same,ALT,"[2]; 1 month, n = 18",43.6 ± 44.9 U/L
same,AST,"[2]; 1 month, n = 18",71.72 ± 59.9 U/L
same,Creatinine,"[2]; 3 month, n = 17",0.90 ± 0.4 mg/dL
same,INR,"[2]; 3 month, n = 17",1.31 ± 0.45 Unit Score
same,Albumin,"[2]; 3 month, n = 17",3.6 ± 0.9 g/dL
same,AST:ALT,"[2]; 3 month, n = 17",1.7 ± 0.82
same,ABIC,"[2]; 3 month, n = 17",5.98 ± 1.5 Unit Score
same,Total Bilirubin,"[2]; 3 month, n = 17",3.82 ± 8.3 mg/dL
same,MELD,"[2]; 3 month, n = 17",12.06 ± 7.73 Unit score
same,ALT,"[2]; 3 month, n = 17",33.39 ± 36.27 U/L
same,AST,"[2]; 3 month, n = 17",58.65 ± 51.9 U/L
same,Total Bilirubin,"[2]; 6 month, n = 15",2.8 ± 3.84 mg/dL
same,MELD,"[2]; 6 month, n = 15",12.40 ± 8.4 Unit score
same,Creatinine,"[2]; 6 month, n = 16",0.88 ± 0.35 mg/dL
same,INR,"[2]; 6 month, n = 16",1.41 ± 0.69 Unit Score
same,Albumin,"[2]; 6 month, n = 16",4.01 ± 0.94 g/dL
same,AST:ALT,"[2]; 6 month, n = 16",1.65 ± 0.97
same,ABIC,"[2]; 6 month, n = 16",6.08 ± 1.46 Unit Score
same,ALT,"[2]; 6 month, n = 16",38.75 ± 32.48 U/L
same,AST,"[2]; 6 month, n = 16",48.75 ± 25.20 U/L
same,biomarkers of liver injury progression and severity,"[2]; LGG treatment, summary",significant reduction
same,heavy drinking markers,[3],reduction of heavy drinking markers
